The results in this text go back to PMC5746060, “General and Modular Strategy for Designing Potent, Selective, and Pharmacologically Compliant Inhibitors of Rhomboid Proteases” (Cell Chemical Biology, 2017).

For experiment [1], the target named is T1, EcGlpG (Escherichia coli, UniProt P09391).
T1 construct: made in house; host or cells: E. coli C41(DE3)
In words: activity-based probe competition assay, rhomboid panel. As to conditions: 50 μM and 0.5 μM; outcompeted the ABP even at 500 nM. The format is biochemical, E. coli. The text has this:
Any enzyme inhibitors to be used as specific tools for cell biology or as starting points for drug development must show sufficient level of selectivity toward their intended target. This is particularly important for compounds that react with the catalytic nucleophile common to many serine hydrolases. […] To map the selectivity of peptidyl ketoamides more objectively and widely, we employed activity-based probe (ABP) competition assays that enable a more general and substrate-independent measurement of inhibitory potency, because they rely solely on the competition between a fluorescently labeled activity-based probe and the tested inhibitor ([Nguyen et al., 2015], [Serim et al., 2012]). […]
Figure 5 Selectivity of Peptidyl Ketoamides (A) Selectivity of compounds 9, 10, and 11 for nine rhomboid proteases was profiled using activity-based probe competition assay at 50 μM and 0.5 μM concentration. […] (B) Selectivity of compounds 9, 10, and 11 against human serine hydrolases was analyzed using EnPlex as described ([Bachovchin et al., 2014]).
For inhibitor selectivity profiling against rhomboid proteases ([Wolf et al., 2015]), 400 ng of a purified protein preparation of E. coli GlpG was diluted in 30 μL of reaction buffer (20 mM HEPES, pH 7.4, with 0.05% (w/v) DDM). […] Gels were scanned on a Typhoon Trio+ and analyzed using ImageJ. […]

The target in experiment [2] is T2, rhomboid protease GlpG (Escherichia coli, UniProt P09391).
T2 construct: made in house; host or cells: E. coli C41(DE3)
As to the kind of experiment: progress-curve analysis of slow-binding inhibition of GlpG (Ki, kon, koff, modality). The format is biochemical. As to conditions: for koff: Table 1; for Ki: true inhibitory constant, equals Kiapp (non-competitive). As for the experimental part:
Figure 4 Mechanism of Inhibition of Rhomboid Protease GlpG by Peptidyl Ketoamides Analyzed Using Fluorogenic Transmembrane Peptide Substrates (A) Progress curves in the presence of increasing concentrations of compound 10 show biphasic character, which is typical for slow-binding inhibitors ([Copeland, 2013a], [Morrison, 1982]). GlpG (0.5 nM) was incubated with 25 μM substrate KSp93 in the presence of 0.05% (w/v) DDM and 0–1,333 nM 10. Fluorescence at 493 nm was followed to monitor substrate cleavage. (B) Biphasic progress curves characterized by an initial reaction rate (vi) and steady state reaction rate (vs). The progress curve at 1,333 nM compound 10 from the experiment in (A) is shown in detail, and both reaction rates obtained from non-linear regression into Equation (1) are shown as dotted lines. (C) Reversibility of inhibition by ketoamides was assessed by the rapid dilution method ([Harper et al., 1985], [Harper and Powers, 1985]). […] This solution was then rapidly diluted 100-fold either into the reaction buffer containing 10 μM substrate KSp64 ([Ticha et al., 2017]) (yielding final 10 nM inhibitor) or into the reaction buffer with 10 μM substrate KSp64 and 1,000 nM 10. For comparison, we used β-lactam L29 ([Pierrat et al., 2011]) at 1 μM and isocoumarin JLK6 ([Vinothkumar et al., 2010]) at 10 μM as known reversible and irreversible inhibitors of rhomboid proteases, respectively. Activity recovery was followed by measuring fluorescence over the course of 120 min with excitation at 553 nm and emission at 583 nm. (D) Progress curves of KSp93 cleavage at increasing concentrations of 10 measured under (A) were analyzed by non-linear regression as described for slow-binding inhibition ([Copeland, 2013a], [Morrison, 1982]) using GraphPad Prism version 7.02 for Windows (GraphPad Software, La Jolla, California, USA) to yield the rate constant for the onset of inhibition, kobs. […] Michaelis curves at the indicated inhibitor concentrations were measured by plotting vS (measured as in Figure 4B) against substrate concentration using 1 nM GlpG, 0.15% (w/v) DDM and highly sensitive substrate KSp96. […] The apparent inhibitory constants Kiapp (blue-red striped columns) and the constituent rate constants kon (red columns) and koff (blue columns) were determined from progress curve analysis as shown in (A and C) (note that Kiapp = koff/kon). […] TEXT PRINTED IN THE PICTURE: (D) compound 10: Ki^app = (123±47) nM; kon = (3.4±0.2)·10^-5 (nM^-1·min^-1); koff = (4.2±1.4)·10^-3 (min^-1) DOUBTS OF THE COPYIST ABOUT THIS PICTURE: compound 10, kon: the exponent is in very small print, read as -5 but could be -6 or -8 / compound 10, koff: the exponent is in very small print, read as -3 but could be -5 […]

Where “and” joins values, the source holds several entries; their conditions need not be identical. Equal entries are not always repeated. Where two headings read alike, the source gives them in different places. Starred links: 1 amine or outer side, 2 acyl side, 3 side chain; linkers in the order of their positions; H or OH if unused. Non-standard residues stand in square brackets, D forms with d. Residues, ends and D or L forms follow the SMILES beside them. *: point of attachment. NH(4-phenylbutyl) = c1ccc(CCCCN*)cc1; X1 = C[C@H](N[*:1])C(=O)C(=O)[*:2]; NHPhenethyl = c1ccc(CCN*)cc1

T2 sequence (P09391 whole entry): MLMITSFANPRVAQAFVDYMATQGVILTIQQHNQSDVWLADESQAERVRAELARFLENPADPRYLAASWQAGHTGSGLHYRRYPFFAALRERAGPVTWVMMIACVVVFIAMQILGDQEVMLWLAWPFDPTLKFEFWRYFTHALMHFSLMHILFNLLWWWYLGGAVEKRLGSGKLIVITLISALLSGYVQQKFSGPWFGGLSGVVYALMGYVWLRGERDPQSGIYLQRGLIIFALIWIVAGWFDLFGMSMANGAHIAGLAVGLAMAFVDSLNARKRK
T1 sequence (P09391 whole entry): as above

As to `CC(=O)N[C@@H](CCCNC(=N)N)C(=O)N[C@H](C(=O)N[C@@H](CCCNC(=N)N)C(=O)N[C@@H](Cc1c[nH]cn1)C(=O)N[C@@H](C)C(=O)C(=O)NCCc1ccccc1)C(C)C` [compound 9, Ac-RVRHA-CONH-phenylethyl] (Ac-RVRH[X1]-NHPhenethyl), the “competition with ABP labeling of EcGlpG” value in experiment [1] is on record as “potently competed”. Moreover, the koff in experiment [2] was 0.0002 s⁻¹. Also, the Ki in experiment [2] (read-out: Ki) was 219 nM and 220 nM.
Regarding `CC(=O)N[C@@H](CCCNC(=N)N)C(=O)N[C@H](C(=O)N[C@@H](CCCNC(=N)N)C(=O)N[C@@H](Cc1c[nH]cn1)C(=O)N[C@@H](C)C(=O)C(=O)NCCCCc1ccccc1)C(C)C` [compound 11, Ac-RVRHA-CONH-phenylbutyl] (Ac-RVRH[X1]-{NH(4-phenylbutyl)}), in experiment [1], the “competition with ABP labeling of EcGlpG” value is “potently competed”. In experiment [2] (Ki), this molecule came in with a Ki of 45 ± 8 nM. Further, in experiment [2], the koff is 6.5e-05 s⁻¹.
